According to patent US20240158445A1, “CYCLIC CELL-PENETRATING PEPTIDES WITH THREE OR MORE HYDROPHOBIC RESIDUES” (Ohio State Innovation Foundation, priority 2021, published 2024):
Where a SMILES comes first, the peptide text is derived from it. Side-chain parts run from the residue outwards. [ ]: non-standard residue; d: D form. The star is where a group is joined. X2 = NC(=O)[C@H](CCCCNC(=O)c1ccc(-c2c3ccc4cc(O)ccc4c3oc3c2ccc2cc(=O)ccc23)c(C(=O)O)c1)N*; Lys(5-FITC)NH2 = NC(=O)[C@H](CCCCNC(=S)Nc1ccc2c(c1)C(=O)OC21c2ccc(O)cc2Oc2cc(O)ccc21)N*; X1 = CN(C)c1ccc2c(c1)Oc1cc(N(C)C)ccc1C21OC(=O)c2cc(C(=O)NCCCC[C@H](N*)C(N)=O)ccc21; 2Nal = N[C@@H](Cc1ccc2ccccc2c1)C(=O)O; Bta = N[C@@H](Cc1csc2ccccc12)C(=O)O; AEEA = NCCOCCOCC(=O)O

Legend:
proteins in FBS = experiment: Fluorescence polarization analysis of CPP binding to FBS; design: species or system bovine; conditions: 100 nM labeled peptide, FBS in DPBS, 1 h, FP; read-out: apparent KD to proteins in FBS
Procedure: General Methods—Fluorescence Polarization (FP) Analysis of CPP Binding to FBS. Fluorescein-labeled peptide (100 nM) was incubated with serial dilutions of FBS (0-100 μM) in DPBS for 1 h. The solutions were transferred to a 384-black microplate (Greiner), and FP values were measured on a Tecan Infinite M1000 Pro plate reader, with excitation and emission wavelengths at 470 and 535 nm, respectively, for FITC, 530 and 580 nm for TMR, and 595 and 660 nm for NF. The titration curves were fitted using GraphPad Prism to the following equation: […]
where FP is the measured polarization, Amin is the minimum FP value, Amax is the maximum FP value, Qb is the quantum yield of the bound fluorophore, Qf is the quantum yield of the free fluorophore, L is the ligand concentration, KD is the dissociation constant, and x is the protein concentration. Data presented are the mean±SD of three independent experiments.

HeLa cells = experiment: Live-cell confocal microscopy; format: cell-based, human; conditions: 2 h, 1% FBS
Procedure: General Methods—Confocal Microscopy. HeLa cells were seeded in a 35-mm glass-bottomed microwell dish with 4 compartments (Greiner) at a density of 5×10^4 cells/mL (300 μL in each compartment) and cultured overnight. Next day, the cells were gently washed with DPBS twice, and treated for 2 h with FITC- or TMR-labelled peptides (5 μM, 1 μM or 0.2 μM as indicated) in phenol-red free DMEM containing 1% […]. After removal of the medium, the cells were gently washed with DPBS twice and imaged on a Nikon A1R live-cell confocal laser scanning (ECLIPSE Ti-E automated, inverted) microscope equipped with a 100× oil objective (1.45 N.A.) and a heated (37° C.) chamber supplied with 5% CO2. For the red channel (TMR), the laser line with λEx 561 nm was set at 0.6% laser power (for 5 μM peptide treatment), 1.6% laser power (for 1 μM peptide treatment) or 10.8% laser power (for 0.2 μM peptide treatment). For the green channel (FITC), the laser line with λEx 487 nm was set at 0.6% laser power. The data were analyzed using NIS-Elements AR.

Keap1-Nrf2 interaction = experiment: Luciferase reporter assay in ARE reporter-HepG2 cells; format: cell-based; conditions: up to 5 mM concentration
Procedure: General Methods—Luciferase Reporter Assay. ARE reporter-HepG2 cells (1000 cells per well) were seeded in 100 μL of assay medium (MEM, 0% FBS, and 1% penicillin-streptomycin sulfate) in an opaque 96-well plate and cultured overnight. […] After incubation, 100 μL of One-Step luciferase assay reagent was added to each well and after 15 min of shaking, the luminescence was measured using a Tecan Infinite M1000 Pro microplate reader. P values (<0.05) were estimated using Student's t test.

| Compound | Kd (proteins in FBS) [µM] | intracellular distribution of TMR fluorescence (HeLa cells; 0.2 and 1.0 μM) | increase in luciferase activity (Keap1-Nrf2 interaction) | intracellular distribution of TMR fluorescence (HeLa cells; 5 μM) |
| --- | --- | --- | --- | --- |
| N=C(N)NCCC[C@@H]1NC(=O)[C@H](Cc2ccc3ccccc3c2)NC(=O)[C@@H](Cc2ccccc2)NC(=O)[C@H](Cc2ccccc2)NC(=O)[C@H](CCC(=O)NCCOCCOCC(=O)N[C@@H](CCCCNC(=O)c2ccc(-c3c4ccc5cc(O)ccc5c4oc4c3ccc3cc(=O)ccc34)c(C(=O)O)c2)C(N)=O)NC(=O)[C@@H](CCCNC(=N)N)NC(=O)[C@H](CCCNC(=N)N)NC(=O)[C@@H](CCCNC(=N)N)NC1=O [CPP12, cycl(Phe-D-Phe-Nal-Arg-D-Arg-Arg-D-Arg-Gln)] (cyclo([2Nal]R[dR]R[dR]E([AEEA-X2])F[dF])) | 1.3 ± 0.3 | – | – | – |
| N=C(N)NCCC[C@@H]1NC(=O)[C@H](Cc2ccc3ccccc3c2)NC(=O)[C@@H](Cc2ccccc2)NC(=O)[C@H](Cc2ccccc2)NC(=O)[C@H](CCC(=O)NCCOCCOCC(=O)N[C@@H](CCCCNC(=S)Nc2ccc3c(c2)C(=O)OC32c3ccc(O)cc3Oc3cc(O)ccc32)C(N)=O)NC(=O)[C@@H](CCCNC(=N)N)NC(=O)[C@H](CCCNC(=N)N)NC(=O)[C@@H](CCCNC(=N)N)NC1=O [CPP12^FITC] (cyclo(F[dF][2Nal]R[dR]R[dR]E([AEEA-Lys(5-FITC)NH2]))) | 29 ± 3 | – | – | – |
| N=C(N)NCCC[C@@H]1NC(=O)[C@H](Cc2csc3ccccc23)NC(=O)[C@@H](Cc2ccccc2)NC(=O)[C@H](Cc2ccccc2)NC(=O)[C@H](CCC(=O)NCCOCCOCC(=O)N[C@@H](CCCCNC(=S)Nc2ccc3c(c2)C(=O)OC32c3ccc(O)cc3Oc3cc(O)ccc32)C(N)=O)NC(=O)[C@@H](CCCNC(=N)N)NC(=O)[C@H](CCCNC(=N)N)NC(=O)[C@@H](CCCNC(=N)N)NC1=O [CPP12-2^FITC] (cyclo(F[dF][Bta]R[dR]R[dR]E([AEEA-Lys(5-FITC)NH2]))) | 30 ± 5 | – | – | – |
| CN(C)c1ccc2c(c1)Oc1cc(N(C)C)ccc1C21OC(=O)c2cc(C(=O)NCCCC[C@H](NC(=O)COCCOCCNC(=O)CC[C@@H]3NC(=O)[C@@H](CCCNC(=N)N)NC(=O)[C@H](CCCNC(=N)N)NC(=O)[C@@H](CCCNC(=N)N)NC(=O)[C@H](CCCNC(=N)N)NC(=O)[C@H](Cc4csc5ccccc45)NC(=O)[C@@H](Cc4ccccc4)NC(=O)[C@H](Cc4ccccc4)NC3=O)C(N)=O)ccc21 [CPP12-2^TMR] (cyclo([Bta]R[dR]R[dR]E([AEEA-X1])F[dF])) | 68 ± 9 | predominantly punctate fluorescence in the cytoplasmic region | – | – |
| N=C(N)NCCC[C@@H]1NC(=O)[C@H](Cc2csc3ccccc23)NC(=O)[C@@H](Cc2ccccc2)NC(=O)[C@H](Cc2ccccc2)NC(=O)[C@H](CCC(=O)NCCOCCOCC(=O)N[C@@H](CCCCNC(=O)c2ccc(-c3c4ccc5cc(O)ccc5c4oc4c3ccc3cc(=O)ccc34)c(C(=O)O)c2)C(N)=O)NC(=O)[C@@H](CCCNC(=N)N)NC(=O)[C@H](CCCNC(=N)N)NC(=O)[C@@H](CCCNC(=N)N)NC1=O [CPP12-2, Phe-phe-(Bta)-Arg-arg-Arg-arg-Gln] (cyclo([Bta]R[dR]R[dR]E([AEEA-X2])F[dF])) | 1.2 ± 0.4 | – | – | – |
| CC(C)C[C@@H]1NC(=O)[C@H](Cc2ccccc2)NC(=O)[C@H](CCC(=O)O)NC(=O)CNC(=O)[C@H]([C@@H](C)O)NC(=O)[C@H](CCC(=O)O)NC(=O)[C@@H]2CCCN2C(=O)[C@H](CC(=O)O)NC(=O)[C@H](CC(C)C)NC(=O)[C@H](CCC(N)=O)NC(=O)CNC1=O [Peptide P1] | – | – | did not result in significant increase in luciferase activity | – |
| CN(C)c1ccc2c(c1)Oc1cc(N(C)C)ccc1C21OC(=O)c2cc(C(=O)NCCCC[C@H](NC(=O)COCCOCCNC(=O)CC[C@@H]3NC(=O)[C@@H](CCCNC(=N)N)NC(=O)[C@H](CCCNC(=N)N)NC(=O)[C@@H](CCCNC(=N)N)NC(=O)[C@H](CCCNC(=N)N)NC(=O)[C@H](Cc4ccc5ccccc5c4)NC(=O)[C@@H](Cc4ccccc4)NC(=O)[C@H](Cc4ccccc4)NC3=O)C(N)=O)ccc21 [CPP12^TMR] (cyclo([2Nal]R[dR]R[dR]E([AEEA-X1])F[dF])) | 27 ± 9 | predominantly punctate fluorescence in the cytoplasmic region | – | very similar intracellular distribution |
